Assay results from paper PMC7018653 (mBio, 2020).
≈ marks a conversion by molar mass, not a printed value. Read-outs that look alike come from different tables or passages of the source. Residues, ends and D or L forms follow the SMILES beside them. *: point of attachment. βNA = c1ccc2cc(N*)ccc2c1

Assays:
[1] = ref supplement refs 1-13 as given per antibiotic; cited from earlier work
in vitro [2] = settings: Klebsiella pneumoniae, not told
in vitro [3] = settings: Klebsiella pneumoniae, not told; remark: listed apart in the source
[4] = system: K. pneumoniae isolate (KP3800); test: agar MIC according to CLSI guidelines; format: cell-based, Klebsiella pneumoniae
[5] = system: E. cloacae isolate (EC3800); test: agar MIC according to CLSI guidelines; format: cell-based, Enterobacter cloacae
[6] = critically ill patients; ref supplement refs 1-13 as given per antibiotic; cited from earlier work
E. cloacae complex = settings: cited from earlier work
[7] = basic group carrying the positive charge; no reference given; cited from earlier work
[8] = system: polymyxin-resistant K. pneumoniae isolate KP3800; settings: for OM permeability coefficient, fold smaller in KP3800 compared to EC3800: KP3800 vs EC3800
in vitro [9] = settings: Enterobacter cloacae, not told, pH 7, Avg OM permeability coefficient (nm/s) ± SD
P. aeruginosa = settings: not told; cited from earlier work
[10] = system: polymyxin-susceptible E. cloacae isolate EC3800; settings: for OM permeability of imipenem, fold faster than meropenem: E. cloacae EC3800
[11] = pH 7, Avg OM permeability coefficient (nm/s) ± SD, Cassette K. pneumoniae, efflux: with 25 mg/liter PAβN, two biological replicates
[12] = pH 7, Avg OM permeability coefficient (nm/s) ± SD, Cassette K. pneumoniae, three biological replicates
[13] = pH 7, Avg OM permeability coefficient (nm/s) ± SD, Discrete K. pneumoniae, three biological replicates
[14] = Cassette E. cloacae, efflux: with 25 mg/liter PAβN, two biological replicates
[15] = Cassette E. cloacae, three biological replicates
[16] = Discrete E. cloacae, three biological replicates

Molecule | Papp (in vitro [3]; [11]) [×10⁻⁶ cm/s] | Papp (in vitro [3]; [12]) [×10⁻⁶ cm/s] | Papp (in vitro [3]; [13]) [×10⁻⁶ cm/s] | MIC ([4]; Klebsiella pneumoniae) [µg/mL] | MIC ([5]; Enterobacter cloacae) [µg/mL] | Mean Clearance [6] [L/h] | further results
C[C@H]1[C@H](NC(=O)/C(=N\OC(C)(C)C(=O)O)c2csc(N)n2)C(=O)N1S(=O)(=O)O [Aztreonam, aztreonam] | < 0.3 | < 0.3 | 0.864 ± 0.846 |  |  |  | Fraction bound in plasma (%) [1]: 51.5%; Papp (in vitro [2]): 0.74 ×10⁻⁶ cm/s
CO/N=C(\C(=O)N[C@@H]1C(=O)N2C(C(=O)[O-])=C(C[N+]3(C)CCCC3)CS[C@H]12)c1csc(N)n1 [Cefepime, cefepime] | < 0.3 | < 0.3 | 1.36 ± 0.926 | 128 (≈ 266 µM) | 16 (≈ 33.3 µM) |  | 
CC(C)(O/N=C(\C(=O)N[C@@H]1C(=O)N2C(C(=O)[O-])=C(C[n+]3ccccc3)CS[C@H]12)c1csc(N)n1)C(=O)O [Ceftazidime, ceftazidime] | < 0.3 | < 0.3 | < 0.3 | 64 (≈ 117 µM) | 16 (≈ 29.3 µM) | 9.22 | permeability coefficients (E. cloacae complex): 0.1 ×10⁻⁶ cm/s; Papp (in vitro [3]; pH 7, Outer membrane permeability coefficients (nm/s), KP3800, discrete assay, average ± SD, three replicates (Table S2)): < 0.3 ×10⁻⁶ cm/s; Papp (in vitro [3]; pH 7, permeability coefficient, KP3800, degradation too slow to be reliably determined in intact bacteria, 'likely'): < 0.3 ×10⁻⁶ cm/s
C[C@@H](O)[C@H]1C(=O)N2C(C(=O)O)=C(SCCN=CN)C[C@H]12 [Imipenem, imipenem] | 72.3 ± 12.4 | 90.7 ± 6.57 | 204 | 128 (≈ 428 µM) | 4 (≈ 13.4 µM) | 12.4 | pKa2 [7]: 10.6; OM permeability coefficient, fold smaller in KP3800 compared to EC3800 [8]: approximately 5 fold; Fraction bound in plasma (%) [1]: 9.1%; Papp (in vitro [9]; [14]): 393 ×10⁻⁶ cm/s; Papp (in vitro [9]; [15]): 577 ×10⁻⁶ cm/s; Papp (in vitro [9]; [16]): 666 ×10⁻⁶ cm/s; OM permeability of imipenem over meropenem, fold faster (P. aeruginosa): 2.74 fold; OM permeability of imipenem, fold faster than meropenem [10]: at least 7 fold; OM permeability of imipenem, fold faster than meropenem ([10]; listed as imipenem): ~7 fold; OM permeability of imipenem, fold faster than aztreonam ([10]; EC3800): ~2,000 fold; OM permeability of imipenem, fold faster than cefepime ([10]; EC3800): 258 fold
C[C@@H](O)[C@H]1C(=O)N2C(C(=O)O)=C(S[C@@H]3CN[C@H](C(=O)N(C)C)C3)[C@H](C)[C@H]12 [Meropenem, meropenem] | 5.75 ± 2.17 | 9.07 ± 0.689 | 8.33 ± 0.917 | > 256 | 4 (≈ 10.4 µM) | 10.4 | pKa2 [7]: 8.3; OM permeability coefficient, fold smaller in KP3800 compared to EC3800 [8]: ~10 fold; Papp (in vitro [9]; [14]): 40.2 ± 6.98 ×10⁻⁶ cm/s; Papp (in vitro [9]; [15]): 84.3 ± 29.2 ×10⁻⁶ cm/s; Papp (in vitro [9]; [16]): 72.9 ± 15.5 ×10⁻⁶ cm/s
N=C(N)NCCC[C@H](NC(=O)[C@@H](N)Cc1ccccc1)C(=O)Nc1ccc2ccccc2c1 [PAβN, phenylalanine-arginine β-naphthylamide] (H-Phe-Arg-βNA) |  |  |  |  |  |  | effect of efflux pump inhibitor on OM permeability estimates of the β-lactams ([8]; KP3800, PAβN 25 mg/liter, cassette assay): did not significantly affect; effect of efflux pump inhibitor on OM permeability estimates of the β-lactams ([10]; EC3800, PAβN 25 mg/liter, cassette assay): did not significantly affect
polymyxin |  |  |  |  |  |  | MIC ([4]; KP3800): 64 µg/mL; MIC ([5]; EC3800): 0.5 µg/mL
